In US11422091B2, “Turn-on near infrared fluorescent probes for imaging lysosomal ROS in live cells at subcellular resolution” (University of Massachusetts, priority 2015, dated 2022):

Tests used:
[1] = Fluorescent responses of RTMI to various ROS in PBS
Procedure: Fresh solutions of L-ascorbic acid (50 mM), hydrogen peroxide (100 mM), tert-butyl hydrogen peroxide (TBHP, 100 mM), 3-morpholinosydnonimine (SIN-1, 5 mM), glutathione reduced form (GSH, 10 mM) and glutathione oxidized form (GSSG, 10 mM) were prepared with distilled water. […]
The hydroxyl and butoxyl radicals were generated in situ by reacting hydrogen peroxide or TBHP with Fe^2+. Fresh 10 mM Fe^2+ was made in 0.1 M HCl solution using ferrous ammonium sulfate [Fe(NH4)2(SO4)2.6H2O]. A 10 μM RTMI solution, in PBS, containing 10 μM Fe^2+ was made and either hydrogen peroxide or TBHP was added to this solution to generate a 100 μM concentration.
Fluorescence spectra were recorded on a Perkin-Elmer LS55 luminescence spectrometer at 293 K. The excitation wavelengths and filters used were indicated in the figures. The pH measurements were carried out on a Corning pH meter equipped with a Sigma-Adrich micro combination electrode calibrated with standard buffer solution.
Fluorescent responses of RTMI (100 μM) to various ROS were monitored in PBS, containing 1% methanol. Various reactive oxygen species were added to the 100 μM RTMI solutions, at a 5:1 molar ratio to RTMI, and the fluorescence intensity was recorded after 5 min of incubation at 25° C. Superoxide (O2.^−) was added as solid KO2. Stock solution solutions of hydrogen peroxide, tert-butyl hydrogen peroxide (TBHP), hypochlorite, 3-morpholinosydnonimine (SIN-1), glutathione (GSH) and 1,4-hydroquinone were made and then added to the RTMI solution, to generate a 500 μM final concentration. 3-(aminopropyl)-1-hydroxy-3-isopropyl-2-oxo-1-triazene (NOC-5, 1 mM) was made as a 10 mM sodium hydroxide solution and then added to the RTMI solution, to generate a 500 μM final concentration. The hydroxyl and butoxyl radicals were generated in situ by reacting hydrogen peroxide or TBHP with Fe^2+. A 100 μM RTMI solution, in PBS, containing 500 μM Fe^2 was made and either hydrogen peroxide or TBHP was added to this solution to generate a 500 μM concentration.

BAEC cells = assay: Detection of ROS in live BAEC cells by fluorescence microscopy; format: cell-based, bovine; conditions: HO., H2O2, KO2, TBO, TBHP, peroxynitrite or ox-LDL, RTMI 10 μM
Procedure: In one embodiment, the RTMI may be used to analyze ROS species within living systems. The RTMI sensor solution was applied to live cells and analyzed under a fluorescence microscope. Each of the various ROS (HO., H2O2, KO2, TBO, TBHP, peroxynitrite) or ROS inducer (ox-LDL) that were present combined with the RTMI sensor were incubated with BAEC cells.
The sensor RTMI was dissolved in DMF at a concentration of 10 mM. 1 μL of the DMF solution was added to cell medium without fetal bovine serum. Cell culture medium was removed from the cells in the culture dish and replaced with the fresh medium containing the sensor.
Oxidized low density lipoprotein (Ox-LDL, a stimulation factor for ROS production in cells) was dissolved in water solution and the final concentration in cell media was 20 μg/mL.
Commercial H2O2 (30% wt, density of 1.1 g/ml, MW 34.02 g/mol) was diluted with deionized water to make a fresh solution of 100 mM. 1 μL of the fresh solution was added to cell media to generate a final concentration of 100 μM.
SIN1 (a peroxyitrite donor) was dissolved in deionized water to the concentration of 10 mM; 10 μL of this solution added to cell media to generate a final concentration of 100 μM.
Fe^2+ was freshly made from ferrous ammonium sulfate (MW 392.15 g/mol) dissolved in 0.1 M HCl (DI water solution) to generate a fresh solution of 100 mM. […]

[2] = test system: Bovine Aortic Endothelial Cells (BAEC); assay: Co-localization with Mito Tracker Green and Lyso Tracker Blue, confocal imaging in BAEC; format: cell-based; conditions: BAEC preloaded with TBHP (100 μM) 30 min, RTMI (10 μM) 30 min
Procedure: Confocal fluorescence imaging studies were performed with a Zeiss LSM 710 laser scanning microscope.

[3] = Photo stability of the sensor; format: physicochemical
[4] = RTMI 100 μM in PBS, 1% methanol, 500 μM, 5 min, 25° C.

**Q.** Which results are given for CCCN1c2ccccc2C(C)(C)C1/C=C/C1=C2Oc3cc(O)ccc3C=C2CCC1 (stereo not drawn) [RTMI]?
**A.** fluorescence response to TBHP [1, 4]: turn-on; fluorescence response to hydrogen peroxide [1, 4]: turn-on; fluorescence response to peroxynitrite (generated by SIH 1) [1, 4]: turn-on; fluorescence response to superoxide (O2.-) ([1]; RTMI 100 μM in PBS, 1% methanol, solid KO2, 5:1 molar ratio, 5 min, 25° C.): turn-on; fluorescence response to butoxyl radical (TBO) ([1]; RTMI 100 μM in PBS, generated in situ from TBHP 500 μM and Fe2+ 500 μM): turn-on; fluorescence response to hydroxyl radical ([1]; RTMI 100 μM in PBS, generated in situ from hydrogen peroxide 500 μM and Fe2+ 500 μM): turn-on; fluorescence response to Fe2+ ([1]; beyond baseline fluorescence): does not respond; fluorescence response to GSH ([1]; beyond baseline fluorescence): does not respond; fluorescence response to GSSG ([1]; beyond baseline fluorescence): does not respond; fluorescence response to nitrite ([1]; beyond baseline fluorescence): does not respond; fluorescence response to nitric oxide radical ([1]; beyond baseline fluorescence, NOC-5): does not respond; fluorescence peak upon reacting with ROS ([1]; in physiological buffer, near IR region): 705 nm; fluorescence emission in the near IR region of cells treated with ROS or ROS inducers, compared to the control (BAEC cells): strongly fluorescence emission signals; subcellular location of ROS detected by the sensor [2]: in lysosomes; photo stability [3]: very good photo stability
